Results on two compounds are retold here after BindingDB's records for doi:10.7270/Q2SB445M (Nmmlsc, 2009).

The target of the test is Ras-related protein Rab-7a (Canis lupus familiaris, UniProt P18067). Put plainly: extra analogs blocking nucleotide binding to Rab7 – biochemical, additional analogs, wildtype, multiplex bead flow cytometry, SAR follow-up (AID 2036). In general terms: A flow cytometer gives signals particle by particle.
Ras-related protein Rab-7a, sequence (P18067 whole entry): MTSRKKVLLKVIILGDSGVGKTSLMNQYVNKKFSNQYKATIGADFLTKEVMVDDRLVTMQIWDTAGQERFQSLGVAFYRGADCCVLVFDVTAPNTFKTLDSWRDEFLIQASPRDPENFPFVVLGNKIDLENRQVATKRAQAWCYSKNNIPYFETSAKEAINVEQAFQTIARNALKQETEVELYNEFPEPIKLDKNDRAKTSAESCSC

Usually Ki stands for a dissociation constant, usually derived from enzyme kinetics or from competition with a known ligand. A low value points to tighter binding. As for `O=C1Nc2c(F)cccc2C1=C1Nc2ccccc2C1=O`, the Ki turned out to be 1560 nM. `O=C1NC(=S)N/C1=C1\C(=O)Nc2ccccc21` [(3Z)-3-(5-oxo-2-sulfanylideneimidazolidin-4-ylidene)-1H-indol-2-one] yielded a Ki of 870 nM.
